In ChEMBL document CHEMBL1201862, “PubChem BioAssay data set” (2004):
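Each compound was tested at five concentrations against cells in 96-well plates for 48 hours. GI50 = concentration required for 50% inhibition of growth.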 Calls of active or inactive are those of the source. Cut-off read from the data, not from the text of the source: active = GI50 up to about 1.1 µM and inactive = higher.

Key:
Experiment in all cases: NCI-60 cell line screen, 48 h
OVCAR-8 = tested on: OVCAR-8
EKVX = tested on: EKVX
SF-268 = tested on: SF-268
SK-OV-3 = tested on: SK-OV-3
MDA-MB-435 = tested on: MDA-MB-435
A498 = tested on: A498
SF-295 = tested on: SF-295
HOP-92 = tested on: HOP-92
NCI/ADR-RES = tested on: NCI/ADR-RES
NCI-H460 = tested on: NCI-H460
Hs-578T = tested on: Hs-578T
Malme-3M = tested on: Malme-3M
MOLT-4 = tested on: MOLT-4
SR = tested on: SR
K562 = tested on: K562
786-0 = tested on: 786-0
ACHN = tested on: ACHN
OVCAR-5 = tested on: OVCAR-5
UACC-62 = tested on: UACC-62
UACC-257 = tested on: UACC-257
HCT-116 = tested on: HCT-116
SN12C = tested on: SN12C
LOX IMVI = tested on: LOX IMVI
HOP-62 = tested on: HOP-62
MCF7 = tested on: MCF7
BT-549 = tested on: BT-549
SK-MEL-5 = tested on: SK-MEL-5
SW-620 = tested on: SW-620
SK-MEL-28 = tested on: SK-MEL-28
HCC 2998 = tested on: HCC 2998
OVCAR-4 = tested on: OVCAR-4
A549 = tested on: A549
COLO 205 = tested on: COLO 205
M14 = tested on: M14
NCI-H23 = tested on: NCI-H23
IGROV-1 = tested on: IGROV-1
HCT-15 = tested on: HCT-15
OVCAR-3 = tested on: OVCAR-3
CCRF-CEM = tested on: CCRF-CEM
CAKI-1 = tested on: CAKI-1
UO-31 = tested on: UO-31
HT-29 = tested on: HT-29
HL-60 = tested on: HL-60
SNB-19 = tested on: SNB-19
SK-MEL-2 = tested on: SK-MEL-2
RPMI-8226 = tested on: RPMI-8226
SF-539 = tested on: SF-539
PC-3 = tested on: PC-3
MDA-N = tested on: MDA-N
TK-10 = tested on: TK-10
DU-145 = tested on: DU-145
NCI-H522 = tested on: NCI-H522
KM12 = tested on: KM12
SNB-75 = tested on: SNB-75
U-251 = tested on: U-251
RXF 393 = tested on: RXF 393
NCI-H226 = tested on: NCI-H226
MDA-MB-231 = tested on: MDA-MB-231

Q: Which results are given for `C/C=C1\CN(C(=O)OC(C)(C)C)C1C(=O)OC(C)(C)C` (stereo not given)?
A: GI50 (OVCAR-8): > 100 µM (inactive); GI50 (EKVX): > 100 µM (inactive); GI50 (SF-268): > 100 µM (inactive); GI50 (SK-OV-3): > 100 µM (inactive); GI50 (MDA-MB-435): > 100 µM (inactive); GI50 (A498): > 100 µM (inactive); GI50 (SF-295): > 100 µM (inactive); GI50 (HOP-92): > 100 µM (inactive); GI50 (NCI/ADR-RES): > 100 µM (inactive); GI50 (NCI-H460): > 100 µM (inactive); GI50 (Hs-578T): 27.7 µM (inactive); GI50 (Malme-3M): > 100 µM (inactive); GI50 (MOLT-4): > 100 µM (inactive); GI50 (SR): > 100 µM (inactive); GI50 (K562): > 100 µM (inactive); GI50 (786-0): > 100 µM (inactive); GI50 (ACHN): > 100 µM (inactive); GI50 (OVCAR-5): > 100 µM (inactive); GI50 (UACC-62): > 100 µM (inactive); GI50 (UACC-257): > 100 µM (inactive); GI50 (HCT-116): > 100 µM (inactive); GI50 (SN12C): > 100 µM (inactive); GI50 (LOX IMVI): > 100 µM (inactive); GI50 (HOP-62): > 100 µM (inactive); GI50 (MCF7): > 100 µM (inactive); GI50 (BT-549): > 100 µM (inactive); GI50 (SK-MEL-5): > 100 µM (inactive); GI50 (SW-620): > 100 µM (inactive); GI50 (SK-MEL-28): > 100 µM (inactive); GI50 (HCC 2998): > 100 µM (inactive); GI50 (OVCAR-4): 53.6 µM (inactive); GI50 (A549): > 100 µM (inactive); GI50 (COLO 205): > 100 µM (inactive); GI50 (M14): > 100 µM (inactive); GI50 (NCI-H23): > 100 µM (inactive); GI50 (IGROV-1): > 100 µM (inactive); GI50 (HCT-15): > 100 µM; GI50 (OVCAR-3): 94 µM (inactive); GI50 (CCRF-CEM): > 100 µM (inactive); GI50 (CAKI-1): > 100 µM (inactive); GI50 (UO-31): 63.7 µM (inactive); GI50 (HT-29): > 100 µM (inactive); GI50 (HL-60): 21.3 µM (inactive); GI50 (SNB-19): > 100 µM (inactive); GI50 (SK-MEL-2): > 100 µM (inactive); GI50 (RPMI-8226): 68.7 µM (inactive); GI50 (SF-539): > 100 µM (inactive); GI50 (PC-3): > 100 µM (inactive); GI50 (MDA-N): > 100 µM (inactive); GI50 (TK-10): > 100 µM (inactive)

Q: For `CC12CC(c3ccccc3O1)C(C(=O)Nc1nccs1)C(=O)N2` (stereo not given), which GI50 (OVCAR-8) is on record?
A: > 100 µM (inactive)

Q: What about the GI50 (EKVX) of the same compound?
A: 35.7 µM (inactive)

Q: And the GI50 (SF-268)?
A: > 100 µM (inactive)

Q: And the GI50 (SK-OV-3)?
A: > 100 µM (inactive)

Q: And the GI50 (DU-145)?
A: > 100 µM (inactive)

Q: And the GI50 (MDA-MB-435)?
A: > 100 µM (inactive)

Q: And the GI50 (A498)?
A: > 100 µM (inactive)

Q: What about the GI50 (SF-295) of the same compound?
A: > 100 µM (inactive)

Q: What about the GI50 (HOP-92) of the same compound?
A: 84.3 µM (inactive)

Q: And the GI50 (NCI/ADR-RES)?
A: > 100 µM (inactive)

Q: What about the GI50 (NCI-H522) of the same compound?
A: > 100 µM (inactive)

Q: And the GI50 (NCI-H460)?
A: > 100 µM (inactive)

Q: And the GI50 (Hs-578T)?
A: > 100 µM (inactive)

Q: What about the GI50 (KM12) of the same compound?
A: > 100 µM (inactive)

Q: And the GI50 (Malme-3M)?
A: > 100 µM (inactive)

Q: And the GI50 (MOLT-4)?
A: > 100 µM (inactive)

Q: What about the GI50 (K562) of the same compound?
A: > 100 µM (inactive)

Q: What about the GI50 (786-0) of the same compound?
A: > 100 µM (inactive)

Q: And the GI50 (SNB-75)?
A: > 100 µM (inactive)

Q: What about the GI50 (ACHN) of the same compound?
A: > 100 µM (inactive)

Q: And the GI50 (OVCAR-5)?
A: > 100 µM (inactive)

Q: And the GI50 (UACC-62)?
A: > 100 µM (inactive)

Q: What about the GI50 (UACC-257) of the same compound?
A: > 100 µM (inactive)

Q: And the GI50 (HCT-116)?
A: > 100 µM (inactive)

Q: And the GI50 (LOX IMVI)?
A: > 100 µM (inactive)

Q: What about the GI50 (HOP-62) of the same compound?
A: > 100 µM (inactive)

Q: What about the GI50 (U-251) of the same compound?
A: > 100 µM (inactive)

Q: What about the GI50 (MCF7) of the same compound?
A: > 100 µM (inactive)

Q: What about the GI50 (BT-549) of the same compound?
A: > 100 µM (inactive)

Q: What about the GI50 (SK-MEL-5) of the same compound?
A: > 100 µM (inactive)

Q: What about the GI50 (SW-620) of the same compound?
A: > 100 µM (inactive)

Q: What about the GI50 (SK-MEL-28) of the same compound?
A: 40.5 µM (inactive)

Q: And the GI50 (HCC 2998)?
A: > 100 µM (inactive)

Q: And the GI50 (OVCAR-4)?
A: > 100 µM (inactive)

Q: What about the GI50 (A549) of the same compound?
A: > 100 µM (inactive)

Q: What about the GI50 (COLO 205) of the same compound?
A: > 100 µM (inactive)

Q: And the GI50 (M14)?
A: > 100 µM (inactive)

Q: And the GI50 (RXF 393)?
A: > 100 µM (inactive)

Q: What about the GI50 (NCI-H23) of the same compound?
A: > 100 µM (inactive)

Q: And the GI50 (IGROV-1)?
A: > 100 µM (inactive)

Q: And the GI50 (HCT-15)?
A: > 100 µM

Q: And the GI50 (NCI-H226)?
A: > 100 µM (inactive)

Q: What about the GI50 (OVCAR-3) of the same compound?
A: > 100 µM (inactive)

Q: What about the GI50 (CCRF-CEM) of the same compound?
A: > 100 µM (inactive)

Q: And the GI50 (CAKI-1)?
A: > 100 µM (inactive)

Q: What about the GI50 (UO-31) of the same compound?
A: > 100 µM (inactive)

Q: What about the GI50 (HT-29) of the same compound?
A: > 100 µM (inactive)

Q: What about the GI50 (HL-60) of the same compound?
A: > 100 µM (inactive)

Q: What about the GI50 (MDA-MB-231) of the same compound?
A: > 100 µM (inactive)

Q: And the GI50 (SNB-19)?
A: > 100 µM (inactive)

Q: And the GI50 (SK-MEL-2)?
A: > 100 µM (inactive)

Q: And the GI50 (RPMI-8226)?
A: 98.4 µM (inactive)

Q: And the GI50 (PC-3)?
A: > 100 µM (inactive)

Q: What about the GI50 (MDA-N) of the same compound?
A: > 100 µM (inactive)

Q: What about the GI50 (TK-10) of the same compound?
A: > 100 µM (inactive)
